Assay results from US20080255053A1, “METHOD FOR THE THERAPEUTIC MANAGEMENT OF ENDOMETRIOSIS” (Aeterna Zentaris GmbH, priority 1999, published 2008).
Non-standard residues stand in square brackets, D forms with d. Residues, ends and D or L forms follow the SMILES beside them. dPhe(4-Cl) = N[C@H](Cc1ccc(Cl)cc1)C(=O)O; d2Nal = N[C@H](Cc1ccc2ccccc2c1)C(=O)O; dCit = NC(=O)NCCC[C@@H](N)C(=O)O; d3Pal = N[C@H](Cc1cccnc1)C(=O)O

System: patients with confirmed endometriosis
Assay: Weekly 3 mg Cetrorelix for 8 weeks in patients with confirmed endometriosis
Format: in vivo, human
Conditions: 3 mg weekly for 8 weeks

CC(=O)N[C@H](Cc1ccc2ccccc2c1)C(=O)N[C@H](Cc1ccc(Cl)cc1)C(=O)N[C@H](Cc1cccnc1)C(=O)N[C@@H](CO)C(=O)N[C@@H](Cc1ccc(O)cc1)C(=O)N[C@H](CCCNC(N)=O)C(=O)N[C@@H](CC(C)C)C(=O)N[C@@H](CCCNC(=N)N)C(=O)N1CCC[C@H]1C(=O)N[C@H](C)C(N)=O [Cetrorelix acetate] (Ac-[d2Nal][dPhe(4-Cl)][d3Pal]SY[dCit]LRP[dA]-NH2) was tested, and the “hot flushes or other hormonal (estradiol) withdrawal symptoms” value was “avoiding any hot flushes or other withdrawal symptoms”, the “proliferation of the endometrium at the end of treatment (histological biopsies)” value was “no proliferation of the endometrium” and the “hot flushes or other hormonal (estradiol) withdrawal symptoms” value (listed as Cetrorelix) was “without any signs of estradiol withdrawal symptoms”. The “proliferation of the endometrium at the end of treatment (histological biopsies)” value (listed as Cetrorelix) was “without proliferation of the endometrium”.
